Like-named read-outs stand apart in the source and are kept apart here.
Key:
RS4;11 cells = test: RS4;11 Cell Viability Assay (CellTiter Glo); format: cell-based; settings: 10% human serum;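 note: RS4,11 acute lymphoblastic leukemia cells, viability as percent of untreated control cells, EC50 for loss of viable cells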
Procedure: The acute lymphoblastic leukemia (ALL) cell line RS4;11 was used as the primary human cell line to assess the cellular activity of Bcl-2 selective agents in vitro and their efficacy in vivo.
Cell cytotoxicity EC50 values were assessed using CellTiter Glo (Promega) according to the manufacturer's recommendations. The EC50 values were determined as a percentage of viable cells following treatment compared to the untreated control cells.

GST-Bc1-2 = GST-Bc1-2 (Homo sapiens, UniProt P10415); test: Time Resolved-Fluorescence Resonance Energy Transfer (TR-FRET) Bcl-2 binding assay with F-Bak peptide probe
Procedure: The samples are then mixed on a shaker for 1 minute and incubated for an additional 3 hours at room temperature. For each assay, the probe/antibody and protein/probe/antibody were included on each assay plate as negative and positive controls, respectively.
The samples were then mixed on a shaker for 1 minute and incubated for an additional 3 hours at room temperature. For each assay, the probe/antibody and protein/probe/antibody were included on each assay plate as negative and positive controls, respectively.

[1] = Homo sapiens, RS4-11, 48 h, 50,000 cells per well
[2] = GST-Bcl-2 1 nM, F-Bak probe 100 nM, Tb-anti-GST 1 nM, '<' = below limit of detection, read-out: TR-FRET Bcl-2 Binding Ki

Chain of GST-Bc1-2 (P10415 whole entry): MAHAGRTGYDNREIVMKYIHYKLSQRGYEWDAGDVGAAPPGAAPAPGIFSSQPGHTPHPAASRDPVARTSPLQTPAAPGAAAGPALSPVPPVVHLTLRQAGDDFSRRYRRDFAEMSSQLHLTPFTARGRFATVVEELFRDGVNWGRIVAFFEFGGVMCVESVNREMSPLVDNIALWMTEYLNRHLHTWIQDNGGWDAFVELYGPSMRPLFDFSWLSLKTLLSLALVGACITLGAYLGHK

Structure (SMILES) | EC50 (RS4;11 cells; [1]) [nM] | Ki (GST-Bc1-2; [2]) [nM] | EC50 (RS4;11 cells; 50,000 cells per well, 48 hours) [nM] | Ki (GST-Bc1-2; read-out: Bcl-2 FRET ki) [nM]
CC1(C)CCC(CN2CCN(c3ccc(C(=O)NS(=O)(=O)c4cnc(OCC5CCC6(CC5)CNC(=O)O6)c(Cl)c4)c(Oc4cnc5[nH]ccc5c4)c3)CC2)=C(c2ccc(Cl)cc2)C1 (single isomer, unassigned) [Example 396, N-[(5-chloro-6-{[(5r,8r)-2-oxo-1-oxa-3-azaspiro[4.5]dec-8-yl]methoxy}pyridin-3-yl)sulfonyl]-4-(4-{[2-(4-chlorophenyl)-4,4-dimethylcyclohex-1-en-1-yl]methyl}piperazin-1-yl)-2-(1H-pyrrolo[2,3-b]pyridin-5-yloxy)benzamide] | 84.1 | 0.014 | – | –
CC1(C)CCC(CN2CCN(c3ccc(C(=O)NS(=O)(=O)c4cnc(OCC5CCC6(CC5)CNC(=O)O6)c(Cl)c4)c(Oc4cnc5[nH]ccc5c4)c3)CC2)=C(c2ccc(Cl)cc2)C1 (single isomer, unassigned) [Example 397, N-[(5-chloro-6-{[(5s,8s)-2-oxo-1-oxa-3-azaspiro[4.5]dec-8-yl]methoxy}pyridin-3-yl)sulfonyl]-4-(4-{[2-(4-chlorophenyl)-4,4-dimethylcyclohex-1-en-1-yl]methyl}piperazin-1-yl)-2-(1H-pyrrolo[2,3-b]pyridin-5-yloxy)benzamide] | – | 0.041 | 113 | –
CC1(C)CCC(CN2CCN(c3ccc(C(=O)NS(=O)(=O)c4cnc(NC5CCN(C6CCOCC6)CC5)c(Br)c4)c(Oc4cnc5[nH]ccc5c4)c3)CC2)=C(c2ccc(Cl)cc2)C1 [Example 61, N-({5-bromo-6-[(1-tetrahydro-2H-pyran-4-ylpiperidin-4-yl)amino]pyridin-3-yl}sulfonyl)-4-(4-{[2-(4-chlorophenyl)-4,4-dimethylcyclohex-1-en-1-yl]methyl}piperazin-1-yl)-2-(1H-pyrrolo[2,3-b]pyridin-5-yloxy)benzamide] | 183 | 0.091 | – | –
O=C(NS(=O)(=O)c1ccc(NCC2CCOCC2)c([N+](=O)[O-])c1)c1ccc(N2CCN(Cc3ccccc3-c3ccc(Cl)cc3)CC2)cc1Oc1ccc2[nH]ccc2c1 [Example 87, 4-{4-[(4′-chloro-1,1′-biphenyl-2-yl)methyl]piperazin-1-yl}-2-(1H-indol-5-yloxy)-N-({3-nitro-4-[(tetrahydro-2H-pyran-4-ylmethyl)amino]phenyl}sulfonyl)benzamide] | 1180 | 0.618 | – | 0.618
CC1(C)CCC(CN2CCN(c3ccc(C(=O)NS(=O)(=O)c4ccc(NN5CCS(=O)(=O)CC5)c([N+](=O)[O-])c4)c(Oc4cnc5[nH]ccc5c4)c3)CC2)=C(c2ccc(Cl)cc2)C1 [Example 107, Trans-4-(4-{[2-(4-chlorophenyl)-4,4-dimethylcyclohex-1-en-1-yl]methyl}piperazin-1-yl)-N-({4-[(1,1-dioxidothiomorpholin-4-yl)amino]-3-nitrophenyl}sulfonyl)-2-(1H-pyrrolo[2,3-b]pyridin-5-yloxy)benzamide] | 61.2 | 0.035 | – | –
CC1(C)CCC(CN2CCN(c3ccc(C(=O)NS(=O)(=O)c4ccc(N[C@@H]5CCN(CCF)C5)c([N+](=O)[O-])c4)c(Oc4cnc5[nH]ccc5c4)c3)CC2)=C(c2ccc(Cl)cc2)C1 [Example 183, 4-(4-{[2-(4-chlorophenyl)-4,4-dimethylcyclohex-1-en-1-yl]methyl}piperazin-1-yl)-N-[(4-{[(3R)-1-(2-fluoroethyl)pyrrolidin-3-yl]amino}-3-nitrophenyl)sulfonyl]-2-(1H-pyrrolo[2,3-b]pyridin-5-yloxy)benzamide] | 17.5 | < 0.01 | – | –
CC1(C)CCC(CN2CCN(c3ccc(C(=O)NS(=O)(=O)c4ccc(NCC5CCC(C)(O)CC5)c([N+](=O)[O-])c4)c(Oc4cnc5[nH]ccc5c4)c3)CC2)=C(c2ccc(Cl)cc2)C1 (stereo not drawn) [Example 337, 4-(4-{[2-(4-chlorophenyl)-4,4-dimethylcyclohex-1-en-1-yl]methyl}piperazin-1-yl)-N-[(4-{[(trans-4-hydroxy-4-methylcyclohexyl)methyl]amino}-3-nitrophenyl)sulfonyl]-2-(1H-pyrrolo[2,3-b]pyridin-5-yloxy)benzamide] | 1.76 | – | – | –
CC1(O)CCC(COc2ncc(S(=O)(=O)NC(=O)c3ccc(N4CCN(CC5=C(c6ccc(Cl)cc6)CC6(CC5)CC6)CC4)cc3Oc3cnc4[nH]ccc4c3)cc2Cl)CC1 (stereo not drawn) [Example 341, N-({5-chloro-6-[(trans-4-hydroxy-4-methylcyclohexyl)methoxy]pyridin-3-yl}sulfonyl)-4-(4-{[5-(4-chlorophenyl)spiro[2.5]oct-5-en-6-yl]methyl}piperazin-1-yl)-2-(1H-pyrrolo[2,3-b]pyridin-5-yloxy)benzamide] | 31.7 | – | – | –
CC1(C)CCC(CN2CCN(c3ccc(C(=O)NS(=O)(=O)c4ccc(OCC5CCC(C)(O)CC5)c(Cl)c4)c(Oc4cnc5[nH]ccc5c4)c3)CC2)=C(c2ccc(Cl)cc2)C1 (stereo not drawn) [Example 362, N-({3-chloro-4-[(trans-4-hydroxy-4-methylcyclohexyl)methoxy]phenyl}sulfonyl)-4-(4-{[2-(4-chlorophenyl)-4,4-dimethylcyclohex-1-en-1-yl]methyl}piperazin-1-yl)-2-(1H-pyrrolo[2,3-b]pyridin-5-yloxy)benzamide] | 31.7 | – | – | –
[2H]C1([2H])N(CC2=C(c3ccc(Cl)cc3)CC(C)(C)CC2)C([2H])([2H])C([2H])([2H])N(c2ccc(C(=O)NS(=O)(=O)c3ccc(NCC4CCOCC4)c([N+](=O)[O-])c3)c(Oc3cnc4[nH]ccc4c3)c2)C1([2H])[2H] [Example 369, 4-[4-{[2-(4-chlorophenyl)-4,4-dimethylcyclohex-1-en-1-yl]methyl}(2H8)piperazin-1-yl]-N-({3-nitro-4-[(tetrahydro-2H-pyran-4-ylmethyl)amino]phenyl}sulfonyl)-2-(1H-pyrrolo[2,3-b]pyridin-5-yloxy)benzamide] | 8 | – | – | –
COC(=O)[C@H]1CC[C@H](CNc2ccc(S(=O)(=O)NC(=O)c3ccc(N4CCN(CC5=C(c6ccc(Cl)cc6)CC(C)(C)CC5)CC4)cc3Oc3cnc4[nH]ccc4c3)cc2[N+](=O)[O-])CC1 [Example 379, methyl trans-4-{[(4-{[4-(4-{[2-(4-chlorophenyl)-4,4-dimethylcyclohex-1-en-1-yl]methyl}piperazin-1-yl)-2-(1H-pyrrolo[2,3-b]pyridin-5-yloxy)benzoyl]sulfamoyl}-2-nitrophenyl)amino]methyl}cyclohexanecarboxylate] | 19.4 | < 0.01 | – | –
CC1(C)CCC(CN2CCN(c3ccc(C(=O)NS(=O)(=O)c4ccc(NC[C@H]5CC[C@H](C(=O)O)CC5)c([N+](=O)[O-])c4)c(Oc4cnc5[nH]ccc5c4)c3)CC2)=C(c2ccc(Cl)cc2)C1 [Example 380, trans-4-{[(4-{[4-(4-{[2-(4-chlorophenyl)-4,4-dimethylcyclohex-1-en-1-yl]methyl}piperazin-1-yl)-2-(1H-pyrrolo[2,3-b]pyridin-5-yloxy)benzoyl]sulfamoyl}-2-nitrophenyl)amino]methyl}cyclohexanecarboxylic acid] | 134 | < 0.01 | – | –
CC1(C)CCC(CN2CCN(c3ccc(C(=O)NS(=O)(=O)c4ccc(NC(=O)N5CCC(C#N)CC5)c([N+](=O)[O-])c4)c(Oc4cnc5[nH]ccc5c4)c3)CC2)=C(c2ccc(Cl)cc2)C1 [Example 381, N-(4-{[4-(4-{[2-(4-chlorophenyl)-4,4-dimethylcyclohex-1-en-1-yl]methyl}piperazin-1-yl)-2-(1H-pyrrolo[2,3-b]pyridin-5-yloxy)benzoyl]sulfamoyl}-2-nitrophenyl)-4-cyanopiperidine-1-carboxamide] | 1.41 | < 0.01 | – | –
COC[C@H]1CC[C@@H](CNc2ccc(S(=O)(=O)NC(=O)c3ccc(N4CCN(CC5=C(c6ccc(Cl)cc6)CC(C)(C)CC5)CC4)cc3Oc3cnc4[nH]ccc4c3)cc2[N+](=O)[O-])CC1 [Example 382, 4-(4-{[2-(4-chlorophenyl)-4,4-dimethylcyclohex-1-en-1-yl]methyl}piperazin-1-yl)-N-{[4-({[cis-4-(methoxymethyl)cyclohexyl]methyl}amino)-3-nitrophenyl]sulfonyl}-2-(1H-pyrrolo[2,3-b]pyridin-5-yloxy)benzamide] | 27 | < 0.01 | – | –
COC[C@H]1CC[C@H](CNc2ccc(S(=O)(=O)NC(=O)c3ccc(N4CCN(CC5=C(c6ccc(Cl)cc6)CC(C)(C)CC5)CC4)cc3Oc3cnc4[nH]ccc4c3)cc2[N+](=O)[O-])CC1 [Example 383, 4-(4-{[2-(4-chlorophenyl)-4,4-dimethylcyclohex-1-en-1-yl]methyl}piperazin-1-yl)-N-{[4-({[trans-4-(methoxymethyl)cyclohexyl]methyl}amino)-3-nitrophenyl]sulfonyl}-2-(1H-pyrrolo[2,3-b]pyridin-5-yloxy)benzamide] | 12.4 | < 0.01 | – | –
CC1(C)CCC(CN2CCN(c3ccc(C(=O)NS(=O)(=O)c4ccc5c(c4)nnn5CC4CCOCC4)c(Oc4cnc5[nH]ccc5c4)c3)CC2)=C(c2ccc(Cl)cc2)C1 [Example 384, 4-(4-{[2-(4-chlorophenyl)-4,4-dimethylcyclohex-1-en-1-yl]methyl}piperazin-1-yl)-2-(1H-pyrrolo[2,3-b]pyridin-5-yloxy)-N-{[1-(tetrahydro-2H-pyran-4-ylmethyl)-1H-benzotriazol-5-yl]sulfonyl}benzamide] | > 1000 | 0.704 | – | –
CC1(C)CCC(CN2CCN(c3ccc(C(=O)NS(=O)(=O)c4cnc(OCC5CCC6(CC5)CNC(=O)O6)c(Cl)c4)c(Oc4cnc5[nH]ccc5c4)c3)CC2)=C(c2ccc(Cl)cc2)C1 (stereo not shown) [Example 385, N-({5-chloro-6-[(2-oxo-1-oxa-3-azaspiro[4.5]dec-8-yl)methoxy]pyridin-3-yl}sulfonyl)-4-(4-{[2-(4-chlorophenyl)-4,4-dimethylcyclohex-1-en-1-yl]methyl}piperazin-1-yl)-2-(1H-pyrrolo[2,3-b]pyridin-5-yloxy)benzamide] | 133 | < 0.01 | – | –
